Patent publication US11331289B2, “Antimicrobial composition” (priority 2017, dated 2022)

Columns and labels:
[1] = tested on: S. pseudointermedius n°15 401; assay: Time-killing curve, broth macrodilution; assay type: cell-based, Staphylococcus pseudintermedius
Method: (§1) The time-killing curve is used to determine the bactericidal or bacteriostatic activity of the antibimicrobial substances. Time-killing curves of Oxyclozanide against canine isolates of Staphylococcus aureus and Staphylococcus pseudintermedius were obtained using broth macrodilution method. After contact of different fixed amounts of Oxyclozanide with an inoculum, viable bacteria are counted immediately after contact and after 1, 3, 6 and 24 hours. Counting is performed on agar medium without antimicrobial substance.
(§2) Results are analyzed by plotting log10 CFU/ml versus time for each tested concentration. Bactericidal activity as defined by 99.9% killing of the inoculum is determined from time-killing curves by noting the presence of a ≥3 log10 decrease in CFU/ml.
(§3) Bacterial strains were sub-cultured twice from one cryobead on Mueller Hinton agar and incubated at 37° C. for 18-24 hours. From the second subcultures, isolated colonies were transferred into tubes containing 2 ml of Mueller Hinton Broth in order to obtain bacterial suspensions at 10^8 CFU/ml, knowing that an optical density of 0.1 at 620 nm corresponds to bacterial suspension at 10^8 CFU/ml. Then, bacterial suspensions were adjusted between 5 10^7 and 1 10^8 CFU/ml by dilution in Mueller Hinton broth.
(§4) For each concentration of Oxyclozanide to be tested, 50 μl of working solution concentrated 100× and […] of inoculum were added to 5 ml of Mueller-Hinton broth. Thus, the range of tested concentrations was from 0.125 to 8 μg/ml and the concentration of micro-organism was between 1 10^6 and 2 10^6 CFU/ml.
(§5) At the same time, a tube without Oxyclozanide was prepared: 50 μl of DMSO and 100 μl of inoculum were added to 5 ml of Mueller-Hinton broth and used as growth control. Tubes were incubated at 36° C. under agitation.
(§6) The numbers of viable bacteria were determined immediately after contact (TO) and after 1, 3, 6 and 24 h of incubation.
(§7) At each time, samples of each tube were taken and dilutions were performed in Mueller-Hinton broth. Then, dilutions were spread on Mueller Hinton agar with spiral plater. After 18 h of incubation at 36° C., counting of colonies was performed with automatic colony counter which determine the concentrations of viable bacteria. The technique employed made it possible to quantify bacterial concentrations as low as 20 CFU/ml.
(§8) Time-killing curves were plotted for each concentration of Oxyclozanide using Microsoft Excel software. The number or surviving bacteria was expressed as log10 CFU/ml. The time-killing curves of each strain represent the decrease in the viable bacteria count as a function of time for the Oxyclozanide concentrations concerned.
(§9) Bactericidal activity as defined by 99.9% killing of the inoculum is determined from time-killing curves by noting the presence of a ≥3 log10 decrease in CFU/ml.

[2] = tested on: S. pseudointermedius n°15 410; assay: Time-killing curve, broth macrodilution; assay type: cell-based, Staphylococcus pseudintermedius
Method: as §1, §2, §3, §4, §5, §6, §7, §8, §9

O=C(Nc1cc(Cl)cc(Cl)c1O)c1c(O)c(Cl)cc(Cl)c1Cl [Oxyclozanide]
Viable bacteria count ([1]; 0.125 μg/ml (MIC), 0 h): 5.9 Log10 CFU/ml | Bacteria reducing rate ([1]; 0.125 μg/ml (MIC), 1 h): 0.3 Δ log10 CFU/ml | Bacteria reducing rate ([1]; 0.125 μg/ml (MIC), 3 h): 1.2 Δ log10 CFU/ml | Bacteria reducing rate ([1]; 0.125 μg/ml (MIC), 6 h): 2.2 Δ log10 CFU/ml | Bacteria reducing rate ([1]; 0.125 μg/ml (MIC), 24 h): 2.8 Δ log10 CFU/ml | Viable bacteria count ([1]; 0.125 μg/ml (MIC), 24 h): 8.7 Log10 CFU/ml | Viable bacteria count ([1]; 0.25 μg/ml (2 MIC), 0 h): 6.0 Log10 CFU/ml | Bacteria reducing rate ([1]; 0.25 μg/ml (2 MIC), 1 h): 0.1 Δ log10 CFU/ml | Bacteria reducing rate ([1]; 0.25 μg/ml (2 MIC), 3 h): 0.8 Δ log10 CFU/ml | Viable bacteria count ([1]; 0.25 μg/ml (2 MIC), 3 h): 6.8 Log10 CFU/ml | Bacteria reducing rate ([1]; 0.25 μg/ml (2 MIC), 6 h): 2.2 Δ log10 CFU/ml | Bacteria reducing rate ([1]; 0.25 μg/ml (2 MIC), 24 h): 1.3 Δ log10 CFU/ml | Viable bacteria count ([1]; 0.5 μg/ml (4 MIC), 0 h): 6.0 Log10 CFU/ml | Bacteria reducing rate ([1]; 0.5 μg/ml (4 MIC), 1 h): 0.1 Δ log10 CFU/ml | Bacteria reducing rate ([1]; 0.5 μg/ml (4 MIC), 3 h): 0.4 Δ log10 CFU/ml | Bacteria reducing rate ([1]; 0.5 μg/ml (4 MIC), 6 h): 1.6 Δ log10 CFU/ml | Bacteria reducing rate ([1]; 0.5 μg/ml (4 MIC), 24 h): 1.4 Δ log10 CFU/ml | Viable bacteria count ([1]; 1 μg/ml (8 MIC), 0 h): 6.0 Log10 CFU/ml | Bacteria reducing rate ([1]; 1 μg/ml (8 MIC), 1 h): 0.1 Δ log10 CFU/ml | Bacteria reducing rate ([1]; 1 μg/ml (8 MIC), 3 h): 0.0 Δ log10 CFU/ml | Viable bacteria count ([1]; 1 μg/ml (8 MIC), 3 h): 6.0 Log10 CFU/ml | Bacteria reducing rate ([1]; 1 μg/ml (8 MIC), 6 h): 0.2 Δ log10 CFU/ml | Bacteria reducing rate ([1]; 1 μg/ml (8 MIC), 24 h): 0.7 Δ log10 CFU/ml | Viable bacteria count ([1]; 1 μg/ml (8 MIC), 24 h): 6.7 Log10 CFU/ml | Viable bacteria count ([1]; 2 μg/ml (16 MIC), 0 h): 6.0 Log10 CFU/ml | Bacteria reducing rate ([1]; 2 μg/ml (16 MIC), 1 h): −0.1 Δ log10 CFU/ml | Viable bacteria count ([1]; 2 μg/ml (16 MIC), 1 h): 5.9 Log10 CFU/ml | Bacteria reducing rate ([1]; 2 μg/ml (16 MIC), 3 h): −0.1 Δ log10 CFU/ml | Viable bacteria count ([1]; 2 μg/ml (16 MIC), 3 h): 5.9 Log10 CFU/ml | Bacteria reducing rate ([1]; 2 μg/ml (16 MIC), 6 h): 0.3 Δ log10 CFU/ml | Bacteria reducing rate ([1]; 2 μg/ml (16 MIC), 24 h): −0.1 Δ log10 CFU/ml | Viable bacteria count ([1]; 2 μg/ml (16 MIC), 24 h): 5.9 Log10 CFU/ml | Viable bacteria count ([1]; 4 μg/ml (32 MIC), 0 h): 5.9 Log10 CFU/ml | Bacteria reducing rate ([1]; 4 μg/ml (32 MIC), 1 h): 0.1 Δ log10 CFU/ml | Viable bacteria count ([1]; 4 μg/ml (32 MIC), 1 h): 6.0 Log10 CFU/ml | Bacteria reducing rate ([1]; 4 μg/ml (32 MIC), 3 h): 0.0 Δ log10 CFU/ml | Viable bacteria count ([1]; 4 μg/ml (32 MIC), 3 h): 5.9 Log10 CFU/ml | Bacteria reducing rate ([1]; 4 μg/ml (32 MIC), 6 h): −0.7 Δ log10 CFU/ml | Bacteria reducing rate ([1]; 4 μg/ml (32 MIC), 24 h): −3.4 Δ log10 CFU/ml | Viable bacteria count ([1]; 4 μg/ml (32 MIC), 24 h): 2.5 Log10 CFU/ml | Viable bacteria count ([1]; 8 μg/ml (64 MIC), 0 h): 6.0 Log10 CFU/ml | Bacteria reducing rate ([1]; 8 μg/ml (64 MIC), 1 h): −0.4 Δ log10 CFU/ml | Viable bacteria count ([1]; 8 μg/ml (64 MIC), 1 h): 5.6 Log10 CFU/ml | Bacteria reducing rate ([1]; 8 μg/ml (64 MIC), 3 h): −2.7 Δ log10 CFU/ml | Viable bacteria count ([1]; 8 μg/ml (64 MIC), 3 h): 3.3 Log10 CFU/ml | Bacteria reducing rate ([1]; 8 μg/ml (64 MIC), 6 h): −4.4 Δ log10 CFU/ml | Bacteria reducing rate ([1]; 8 μg/ml (64 MIC), 24 h): −4.7 Δ log10 CFU/ml | Bacteria reducing rate ([2]; 0.125 μg/ml (MIC), 1 h): 0.2 Δ log10 CFU/ml | Bacteria reducing rate ([2]; 0.125 μg/ml (MIC), 3 h): 1.1 Δ log10 CFU/ml | Bacteria reducing rate ([2]; 0.125 μg/ml (MIC), 6 h): 2.3 Δ log10 CFU/ml | Bacteria reducing rate ([2]; 0.125 μg/ml (MIC), 24 h): 2.9 Δ log10 CFU/ml | Bacteria reducing rate ([2]; 0.25 μg/ml (2 MIC), 1 h): 0.1 Δ log10 CFU/ml | Bacteria reducing rate ([2]; 0.25 μg/ml (2 MIC), 3 h): 1.1 Δ log10 CFU/ml | Bacteria reducing rate ([2]; 0.25 μg/ml (2 MIC), 6 h): 2.3 Δ log10 CFU/ml | Bacteria reducing rate ([2]; 0.25 μg/ml (2 MIC), 24 h): 1.1 Δ log10 CFU/ml | Bacteria reducing rate ([2]; 0.5 μg/ml (4 MIC), 1 h): 0.1 Δ log10 CFU/ml | Bacteria reducing rate ([2]; 0.5 μg/ml (4 MIC), 3 h): 1.1 Δ log10 CFU/ml | Bacteria reducing rate ([2]; 0.5 μg/ml (4 MIC), 6 h): 2.1 Δ log10 CFU/ml | Bacteria reducing rate ([2]; 0.5 μg/ml (4 MIC), 24 h): 1.1 Δ log10 CFU/ml | Bacteria reducing rate ([2]; 1 μg/ml (8 MIC), 1 h): 0.1 Δ log10 CFU/ml | Bacteria reducing rate ([2]; 1 μg/ml (8 MIC), 3 h): 0.1 Δ log10 CFU/ml | Bacteria reducing rate ([2]; 1 μg/ml (8 MIC), 6 h): 0.1 Δ log10 CFU/ml | Bacteria reducing rate ([2]; 1 μg/ml (8 MIC), 24 h): 0.4 Δ log10 CFU/ml | Viable bacteria count ([2]; 1 μg/ml (8 MIC), 24 h): 6.7 Log10 CFU/ml | Bacteria reducing rate ([2]; 2 μg/ml (16 MIC), 1 h): 0.0 Δ log10 CFU/ml | Bacteria reducing rate ([2]; 2 μg/ml (16 MIC), 3 h): −0.1 Δ log10 CFU/ml | Bacteria reducing rate ([2]; 2 μg/ml (16 MIC), 6 h): −0.9 Δ log10 CFU/ml | Bacteria reducing rate ([2]; 2 μg/ml (16 MIC), 24 h): −1.7 Δ log10 CFU/ml | Viable bacteria count ([2]; 2 μg/ml (16 MIC), 24 h): 4.6 Log10 CFU/ml | Bacteria reducing rate ([2]; 4 μg/ml (32 MIC), 1 h): −0.2 Δ log10 CFU/ml | Bacteria reducing rate ([2]; 4 μg/ml (32 MIC), 3 h): −0.1 Δ log10 CFU/ml | Bacteria reducing rate ([2]; 4 μg/ml (32 MIC), 6 h): −1.2 Δ log10 CFU/ml | Bacteria reducing rate ([2]; 4 μg/ml (32 MIC), 24 h): −3.9 Δ log10 CFU/ml | Viable bacteria count ([2]; 4 μg/ml (32 MIC), 24 h): 2.4 Log10 CFU/ml | Bacteria reducing rate ([2]; 8 μg/ml (64 MIC), 1 h): −0.2 Δ log10 CFU/ml | Bacteria reducing rate ([2]; 8 μg/ml (64 MIC), 3 h): −1.6 Δ log10 CFU/ml | Viable bacteria count ([2]; 8 μg/ml (64 MIC), 3 h): 4.7 Log10 CFU/ml | Bacteria reducing rate ([2]; 8 μg/ml (64 MIC), 6 h): −3.7 Δ log10 CFU/ml | Viable bacteria count ([2]; 8 μg/ml (64 MIC), 6 h): 2.6 Log10 CFU/ml | Bacteria reducing rate ([2]; 8 μg/ml (64 MIC), 24 h): −5.0 Δ log10 CFU/ml
